Experimental data: patent US7541341B2, “Glucopyranosyloxybenzylbenzene derivatives and medicinal use thereof” (Kissei Pharmaceutical Co., Ltd., priority 2001, dated 2009)

Legend:
[1] = system: SD rats; assay: Assay for the facilitatory effect on urinary glucose excretion; format: in vivo; conditions: fasted male SD rats, sucrose 2.5 g/kg load, 24 hours urine
Description: Assay for the Facilitatory Effect on Urinary Glucose Excretion
As experimental animals, overnight fasted SD rats (Japan SLC. Inc., male, 7-8 weeks of age, 205-272 g) were used. A Test compound was suspended in 0.5% sodium carboxymethylcellulose solution at the concentration of 2 mg/mL. When a homogenous suspension was not obtained in this condition, the test compound was dissolved in ethanol at the concentration of 100 mg/mL of its active form and then 2 mg/mL suspension was obtained by adding this solution to 49 times volumes of 0.5% sodium carboxymethylcellulose solution. Apart of this suspension was diluted with 0.5% sodium carboxymethylcellulose solution and then 0.6 and 0.2 mg/mL suspensions were prepared. After the body weights of rats were measured, the test suspension was orally administered at the dose of 5 mL/kg (1, 3 and 10 mg/kg). For control, just only 0.5% sodium carboxymethylcellulose solution was orally administered at the dose of 5 mL/kg. Immediately after this oral administration, 500 g/L sucrose solution was orally administered at the dose of 5 mL/kg (2.5 g/kg). The oral administration was performed with gastric tube for rat and 2.5 mL syringe. The head count in one group was 3. Collection of urine was performed in metabolic cage after the sucrose administration was finished. The sampling time for collection of urine was 24 hours after the sucrose administration. After collection of urine was finished, the urine volume was recorded and the urinary glucose concentration was measured. The glucose concentration was measured with a kit for laboratory test: Glucose B-Test WAKO (Wako Pure Chemical Industries, Ltd.). The amount of urinary glucose excretion in 24 hours per 200 g of body weight was calculated from urine volume, urinary glucose concentration and body weight.

[2] = system: SD rat; assay: Acute toxicity test; format: in vivo; conditions: oral 1000 mg/kg; male SD rat, 5 animals in each group; observation for 24 hours
Description: A 100 mg/mL suspension was prepared by adding 0.5% sodium carboxymethylcellulose solution to a test compound. Five week old male SD rat (CLEA JAPAN, INC., 124-128 g, 5 animals in each group) were used as test animals after fasted overnight. The above-mentioned suspension was orally administered at the dose 10 mL/kg (1000 mg/kg) to the test animals, and observation was performed for 24 hours.

[3] = target: T1, human SGLT2 (Homo sapiens, UniProt P31639, I433V); assay: Assay for inhibitory effect on human SGLT2 activity (uptake of methyl-α-D-glucopyranoside in COS-7 cells transiently expressing human SGLT2); format: cell-based; conditions: methyl-α-D-(U-14C)glucopyranoside uptake, 37° C., 2 hours
T1 construct: expressed in transfected cells; host or cells: COS-7 cells (RIKEN CELL BANK RCB0539), transient, electroporation of KL29
T1 sequence (P31639 1-672 I433V): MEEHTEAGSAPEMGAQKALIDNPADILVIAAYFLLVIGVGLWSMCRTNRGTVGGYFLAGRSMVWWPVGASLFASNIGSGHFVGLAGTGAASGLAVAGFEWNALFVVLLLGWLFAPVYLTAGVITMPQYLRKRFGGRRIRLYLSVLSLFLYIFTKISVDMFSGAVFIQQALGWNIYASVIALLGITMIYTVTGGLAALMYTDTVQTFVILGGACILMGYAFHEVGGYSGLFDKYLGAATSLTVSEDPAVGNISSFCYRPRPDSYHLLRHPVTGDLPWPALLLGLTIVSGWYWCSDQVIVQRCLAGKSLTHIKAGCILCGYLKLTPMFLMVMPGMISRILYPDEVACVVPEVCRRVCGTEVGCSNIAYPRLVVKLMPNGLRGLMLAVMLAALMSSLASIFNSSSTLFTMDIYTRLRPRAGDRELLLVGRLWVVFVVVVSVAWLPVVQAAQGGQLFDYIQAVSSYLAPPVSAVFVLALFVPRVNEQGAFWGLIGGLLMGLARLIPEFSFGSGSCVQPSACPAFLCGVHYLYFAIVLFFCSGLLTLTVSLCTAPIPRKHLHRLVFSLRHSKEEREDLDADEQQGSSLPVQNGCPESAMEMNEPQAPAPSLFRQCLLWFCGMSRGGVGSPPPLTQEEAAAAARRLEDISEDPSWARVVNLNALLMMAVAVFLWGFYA
Description: Assay for Inhibitory Effect on Human SGLT2 Activity
1) Construction of the Plasmid Vector Expressing Human SGLT2
Preparation of the cDNA library for PCR amplification was performed by reverse transcription of a total RNA deprived from human kidney (Ori gene) with oligo dT as the primer, using […] Preamplification System (Gibco-BRL: LIFE TECHNOLOGIES). The DNA fragment coding for human SGLT2 was amplified by the PCR reaction, in which the human kidney cDNA library described above was used as the template and the following oligo nucleotides 0702F and 0712R, presented as SEQ ID NO:1 and SEQ ID NO:2 respectively, were used as the primers. The amplified DNA fragment was ligated into pCR-Blunt (Invitrogen), a vector for cloning, according to standard method of the kit. The Escherichia coli HB101 was transformed according to usual method and then selection of the transformants was performed on the LB agar medium containing 50 μg/mL of kanamycin. […] After plasmid DNA was extracted and purified from this transformant, the base sequence of the DNA fragment inserted at the multi-cloning sites of the vector pcDNA3.1 (−) Myc/His-B was analyzed. […]

IC50 [3] [nM] | SMILES | Amount of urinary glucose excretion ([1]; oral dose 1 mg/kg) | Amount of urinary glucose excretion ([1]; oral dose 3 mg/kg) | Amount of urinary glucose excretion ([1]; oral dose 10 mg/kg) | Number of death [2]
– | CCOC(=O)OC[C@H]1O[C@@H](Oc2cc(CO)ccc2Cc2ccc(CC)cc2)[C@H](O)[C@@H](O)[C@@H]1O [Example 1, 2-(4-Ethylbenzyl)-5-hydroxymethylphenyl 6-O-ethoxycarbonyl-β-D-glucopyranoside] | 7.0 mg/24 hours/200 g body weight | 82.1 mg/24 hours/200 g body weight | 195.8 mg/24 hours/200 g body weight | 0/5
– | CC(=O)OCCc1ccc(Cc2ccccc2O[C@@H]2O[C@H](COC(C)=O)[C@@H](O)[C@H](O)[C@H]2O)cc1 [Example 40, 2-[4-(2-Acetoxyethyl)benzyl]phenyl 6-O-acetyl-β-D-glucopyranoside] | 0.0 mg/24 hours/200 g body weight | 4.1 mg/24 hours/200 g body weight | 55.9 mg/24 hours/200 g body weight | –
120 | OCC=Cc1ccc(Cc2ccccc2OC2OC(CO)C(O)C(O)C2O)cc1 [Reference Example 49, (E)-2-[4-(3-Hydroxy-1-prop-1-en-1-yl)benzyl]phenyl β-D-glucopyranoside] | – | – | – | –
